According to US9738902B2, “Modified PYR/PYL receptors activated by ligands” (priority 2013, dated 2017):

Experiments:
PYR1 K59R V164M = biological target: T1, PYR1 K59R V164M (Arabidopsis thaliana, UniProt O49686, K59R/V164M); assay: Y2H Pocket Library Screen (HAB1, X-gal); type: cell-based
T1 construct: expressed in transfected cells; host or cells: S. cerevisiae Y190
Procedure, shortened: (§1)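 Readout is X-gal staining of β-galactosidase after chloroform lysis, marking compound-induced PYR1 mutant–HAB1 interaction in Y190 yeast. Strains grew on selective dextrose medium lacking Leu and Trp with 100 μM test compound for two days at 30° C.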

PYR1 K59R V164C = biological target: T2, PYR1 K59R V164C (Arabidopsis thaliana, UniProt O49686, K59R/V164C); assay: Y2H Pocket Library Screen (HAB1, X-gal); type: cell-based
T2 construct: expressed in transfected cells; host or cells: S. cerevisiae Y190
Procedure, shortened: as §1

PYR1 K59R F108A = biological target: T3, PYR1 K59R F108A (Arabidopsis thaliana, UniProt O49686, F108A/K59R); assay: Y2H Pocket Library Screen (HAB1, X-gal); type: cell-based
T3 construct: expressed in transfected cells; host or cells: S. cerevisiae Y190 yeast two-hybrid reporter strain
Procedure, shortened: as §1

[1] = tested on: PYR1^MANDI transgenic plants (E15, E16, F29, F34); assay: progressive water loss regime (drought); type: in vivo, Arabidopsis; conditions: 2 μM mandipropamid, repeated 4 days later; day 11
Method: Treatment of plants with ABA delays water loss and additionally improves the ability of plants to recover from drought. We therefore examined the behavior of wild type, 35S::GFP-PYR and 4 homozygous PYR1^MANDI expressing transgenic plants (E15, E16, F29 and F34) during a progressive water loss regime. […] Plants were grown for three weeks in pots containing the same mass of soil and receiving the same amount of water at each watering. At three weeks after germination, regular watering of the plants was ceased and plants were treated with mock or 2 μM mandipropamid. These treatments were repeated 4 days later. Plants were photographed at 1, 10 and 11 days after initiation of water deprivation. As is evident from FIG. 6, by day 10 mock treated plants display evidence of water stress as indicated by collapsed leaves, by day 11 all mock treated plants have experienced severe desiccation. […] This is also observed for wild type and 35S::GFP-PYR plants treated with mandipropamid at day 10. […] This is in contrast to wild type and 35S::GFP-PYR1 control plants treated with mandipropamid and all mock treated lines. Thus, mandipropamid is able to improve drought stress tolerance in PYR1^MANDI expressing transgenic plants. The beneficial effects of mandipropamid are restricted to PYR1^MANDI expressing transgenic plants.

[2] = biological target: T4, GST-ABI2 in the presence of PYR1^K59R,F108A,S122G (Arabidopsis thaliana, UniProt O49686, F108A/K59R/S122G); assay: PP2C activity assay (pNPP); type: biochemical; conditions: PYR1^K59R,F108A,S122G 1200 nM, PP2C 600 nM
T4 construct: 6x-His; made in house; host or cells: E. coli BL21[DE3]pLysS (receptor)
Excerpt: (§2) One possibility in any functional screen conducted in a heterologous organism such as S. cerevisiae is that mutants identified may only work in the context of the heterologous expression system. We therefore examined whether recombinant PYR1^K59R,F108A,S122G and PYR1^MANDI proteins inhibit PP2C activity in vitro, as is well documented for wild type PYR1 in response to ABA (Park et al., 2009). Both receptors were cloned into pET28 to generate 6×-His (SEQ ID NO:109) tagged receptors. These were expressed in BL21[DE3]pLysS E. coli host cells at 18° C. overnight. 6×-His-fusion proteins were purified from sonicated lysates using Ni-NTA agarose (Qiagen, USA), according to the manufacturer's instructions. For PP2C assays, recombinant GST-HAB1 and GST-ABI2 were expressed and purified as described previously (Park et al., 2009) and PP2C activity assayed conducted using the colorimetric phosphatase substrate para-nitrophenyl phosphate (pNPP) as previously described (Park et al., 2009). PP2C assays were conducted using 600 nM of PP2C and 1200 nM recombinant receptors. […] We note that these mutant receptors cannot respond to ABA due to the K59R mutation they contain, which abolishes ABA responsiveness.

[3] = biological target: T5, GST-HAB1 in the presence of PYR1^K59R,F108A,S122G (Arabidopsis thaliana, UniProt O49686, F108A/K59R/S122G); assay: PP2C activity assay (pNPP); type: biochemical; conditions: PYR1^K59R,F108A,S122G 1200 nM, PP2C 600 nM
T5 construct: 6x-His; made in house; host or cells: E. coli BL21[DE3]pLysS (receptor)
Excerpt: as §2

[4] = biological target: T6, GST-HAB1 in the presence of PYR1^MANDI (Arabidopsis thaliana, UniProt O49686, F108A/F159L/K59R/S122G/V81I/Y58H); assay: PP2C activity assay (pNPP); type: biochemical; conditions: PYR1^MANDI 1200 nM, PP2C 600 nM
T6 construct: 6×-His (N); made in house; host or cells: BL21[DE3]pLysS E. coli (receptor)
Excerpt: as §2

[5] = biological target: T7, GST-ABI2 in the presence of PYR1^MANDI (Arabidopsis thaliana, UniProt O49686, F108A/F159L/K59R/S122G/V81I/Y58H); assay: PP2C activity assay (pNPP); type: biochemical; conditions: PYR1^MANDI 1200 nM, PP2C 600 nM
T7 construct: 6×-His (N); made in house; host or cells: BL21[DE3]pLysS E. coli (receptor)
Excerpt: as §2

[6] = tested on: 35S::PYR1^MANDI lines MDP1, MDP2, MDP3; assay: seed germination assay, 250 nM mandipropamid; type: in vivo, Arabidopsis; conditions: 3 days post-stratification
Excerpt: To further characterize the physiological effects of the PYR1^MANDI/mandipropamid interaction, we characterized three independently generated transgenic Arabidopsis lines in more detail. These lines, initially named E9, E16 and E31 are henceforth referred to as MPD1, MPD2 and MPD3. Each of these lines is homozygous for a single 35S::PYR1^MANDI insertion site and is the result of independent transformation events. We first used germination assays to characterize the relative mandipropamid sensitivity of these lines. Seeds for the transgenics and wild type control were surface sterilized with bleach and then stratified for 4 days at 4° C. on 0.7% agar petri plates containing ½ MS salts and 0.5% sucrose in addition to either 250 nM mandipropamid or a mock treatment of 0.1% DMSO (the carrier solvent). After stratification, the plates were transferred to a growth chamber operating on a 16-hour day length cycle. Seed germination was scored 3 days post-stratification. […] To more definitively assess the relative sensitivity of the MDP1 and MDP2 lines to mandipropamid, we conducted germination dose-response experiments (using the same procedure described above) and confirmed that the MDP1 line is more sensitive to mandipropamid than MDP2 (FIG. 7B).

T3 sequence (O49686 whole entry K59R/F108A): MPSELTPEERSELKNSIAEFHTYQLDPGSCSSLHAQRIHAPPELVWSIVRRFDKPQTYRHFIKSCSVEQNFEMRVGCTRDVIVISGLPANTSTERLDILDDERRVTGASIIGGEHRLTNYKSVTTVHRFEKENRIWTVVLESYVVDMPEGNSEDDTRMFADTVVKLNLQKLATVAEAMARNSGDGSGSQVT
T3 sequence (Q9CAJ0 23-511 partner): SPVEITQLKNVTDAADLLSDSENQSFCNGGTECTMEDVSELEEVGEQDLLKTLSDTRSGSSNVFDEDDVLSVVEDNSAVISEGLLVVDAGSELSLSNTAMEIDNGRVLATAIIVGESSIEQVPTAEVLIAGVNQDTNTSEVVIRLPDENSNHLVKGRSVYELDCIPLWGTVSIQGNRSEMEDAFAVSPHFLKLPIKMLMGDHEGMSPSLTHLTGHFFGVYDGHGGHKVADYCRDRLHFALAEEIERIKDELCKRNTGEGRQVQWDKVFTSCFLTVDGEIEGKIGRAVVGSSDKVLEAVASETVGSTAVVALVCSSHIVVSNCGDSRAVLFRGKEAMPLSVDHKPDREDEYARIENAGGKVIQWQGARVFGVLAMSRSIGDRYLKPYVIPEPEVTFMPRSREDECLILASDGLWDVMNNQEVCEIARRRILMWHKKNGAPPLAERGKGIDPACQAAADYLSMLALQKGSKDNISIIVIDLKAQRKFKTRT
T1 sequence (O49686 whole entry K59R/V164M): as the sequence (O49686 whole entry K59R/F108A) above, with A108F, V164M counted along it
T1 sequence (Q9CAJ0 23-511 partner): as the sequence (Q9CAJ0 23-511 partner) above
T2 sequence (Q9CAJ0 23-511, stated change not applied): as the sequence (Q9CAJ0 23-511 partner) above
T2 sequence (O49686 whole entry K59R/V164C): as the sequence (O49686 whole entry K59R/F108A) above, with A108F, V164C counted along it
T5 sequence (O49686 whole entry K59R/F108A/S122G): as the sequence (O49686 whole entry K59R/F108A) above, with S122G counted along it
T5 sequence (Q9CAJ0 23-511 partner): as the sequence (Q9CAJ0 23-511 partner) above
T4 sequence (O49686 whole entry K59R/F108A/S122G): as the sequence (O49686 whole entry K59R/F108A) above, with S122G counted along it
T4 sequence (O04719 whole entry partner): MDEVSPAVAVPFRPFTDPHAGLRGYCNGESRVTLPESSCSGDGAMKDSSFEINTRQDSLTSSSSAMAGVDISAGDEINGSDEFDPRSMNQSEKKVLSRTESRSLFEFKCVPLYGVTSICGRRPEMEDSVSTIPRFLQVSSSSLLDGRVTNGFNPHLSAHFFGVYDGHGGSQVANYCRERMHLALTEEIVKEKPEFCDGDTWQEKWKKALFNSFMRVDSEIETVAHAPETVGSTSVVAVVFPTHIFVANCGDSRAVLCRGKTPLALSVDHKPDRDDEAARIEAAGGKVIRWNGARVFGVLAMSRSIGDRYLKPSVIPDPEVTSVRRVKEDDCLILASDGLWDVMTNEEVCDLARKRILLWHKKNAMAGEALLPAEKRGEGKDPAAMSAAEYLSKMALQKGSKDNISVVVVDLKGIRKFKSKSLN
T7 sequence (O49686 whole entry Y58H/K59R/V81I/F108A/S122G/F159L): as the sequence (O49686 whole entry K59R/F108A) above, with Y58H, V81I, S122G, F159L counted along it
T7 sequence (O04719 whole entry partner): as the sequence (O04719 whole entry partner) above
T6 sequence (O49686 whole entry Y58H/K59R/V81I/F108A/S122G/F159L): as the sequence (O49686 whole entry K59R/F108A) above, with Y58H, V81I, S122G, F159L counted along it
T6 sequence (Q9CAJ0 23-511 partner): as the sequence (Q9CAJ0 23-511 partner) above

Row | SMILES | Threshold (PYR1 K59R V164M) [µM] | Threshold (PYR1 K59R V164C) [µM] | Threshold (PYR1 K59R F108A) [µM] | desiccation during water deprivation [1] | inhibition of ABI2 PP2C activity [2] | inhibition of HAB1 PP2C activity [3] | inhibition of HAB1 PP2C activity [4] | inhibition of ABI2 PP2C activity [5] | seed germination ([6]; MDP1 seed, 250 nM mandipropamid) | seed germination ([6]; MDP3, 250 nM mandipropamid)
1 | N#Cc1c(Cl)cccc1Cl [Dichlobenil, dichlobenil] | 100 | 100 | – | – | – | – | – | – | – | –
2 | C#CCOc1ccc(CCNC(=O)C(OCC#C)c2ccc(Cl)cc2)cc1OC (stereo not shown) [Mandipropamid, mandipropamid] | – | – | 100 | not desiccated | saturable inhibition | saturable inhibition | saturable inhibition | saturable inhibition | near complete germination inhibition | minimal sensitivity
